Results: patent US11732264B2, “Compositions and methods for treating COVID-19” (Vast Sea Biotechnology, Inc., priority 2020, dated 2023)
d = 2'-deoxy (DNA); r = 2'-OH (RNA)

Legend:
Type in all cases: cell-based
[1] = tested on: primary human lung bronchial/tracheal epithelial cells; test: Fluorescence microscopy of oligo entry into HBTEC; conditions: 24-48 hours, fluorescent filter 10x/20x, delivery per FIG. 20
[2] = tested on: human primary lung small airway epithelial cells (HSAEC); test: FACS detection of intercellular delivery of oligos in HSAEC; conditions: for cells with intercellular signals of the oligos, Arginine compared with lipofectamine (FACS): 10 ul/well Arginine vs lipofectamine
[3] = tested on: primary human lung small airway epithelial cells; test: Fluorescence microscopy of oligo entry into HSAEC; conditions: 24-48 hours, fluorescent filter 10x/20x, lipofectamine, poly-arginine or no reagent per FIG. 1
[4] = tested on: Human Primary Nasal Epithelial Cells; test: Fluorescence microscopy of oligo entry into HNEpC; conditions: 24-48 hours, fluorescent filter 10x/20x, delivery per FIG. 35

Substance	entry into cells, microscopic analysis [1]	intensities of fluorescent signals in cells (FACS) vs no-treatment control ([2]; without lipofectamine or Arginine reagents)	entry into cells, microscopic analysis [3]	entry into cells, microscopic analysis [4]	cells with intercellular signals of the oligos, Arginine compared with lipofectamine (FACS) [2]	intensities of fluorescent signals in cells (FACS) vs no-treatment control ([2]; Arginine only (10 ul/well))	intensities of fluorescent signals in cells (FACS) vs no-treatment control ([2]; with lipofectamine)
TGTTAATTGGAACGCCTTGTC (FANA modified, pattern not given here, FITC label) [VS_ASO_1-FANA-FITC]	entry	significantly stronger	entry	can enter epithelial cells	–	–	–
TGTTAATTGGAACGCCTTGTC (Cy3 label, position not given here) [VS_ASO_2-Cy3]	–	–	–	–	more cells with intercellular signals of the oligos	significantly higher	significantly higher
VS_DsiRNA-Cy5: DsiRNA SEQ ID NOs: 23 & 24, target N-protein, Cy5 labeled (chain 1 AAACUAAAAUGUCUGAUAAUGGACC; chain 2 GGUCCAUUAUCAGACAUUUUAGUUUGU; chain 1: sugars from the 5' end r23 d2, backbone not given here; chain 2: chemistry not given here; Cy5 label)	entry	–	entry	can enter epithelial cells	more cells with intercellular signals of the oligos	significantly higher	significantly higher
